Results published in ChEMBL document CHEMBL1156576, “Determination of log D via automated microfluidic liquid-liquid extraction” (J Med Chem, 2008).

Experiments:
physchem [1] = details: buffer, pH 7.4
physchem [2] = details: buffer, pH 7.4; remark: listed apart in the source
[3] = buffer, pH 7.4
[4] = buffer, pH 7.4; remark: listed apart in the source

CC(C)N(CC[C@](C(N)=O)(c1ccccc1)c1ccccn1)C(C)C [(S)-DISOPYRAMIDE]
logD (physchem [1]): 0.39
logD (physchem [2]): 0.52

CC(=O)Nc1ccc(O)cc1 [ACETAMINOPHEN]
logD (physchem [1]): 0.27
logD (physchem [2]): 0.33

CN(C)CCC(c1ccc(Cl)cc1)c1ccccn1 (stereo not drawn) [CHLORPHENIRAMINE]
logD [3]: 0.26
logD [4]: 0.28

NS(=O)(=O)c1cc(C2(O)NC(=O)c3ccccc32)ccc1Cl (stereo not drawn) [CHLORTHALIDONE]
logD (physchem [1]): 0.85
logD (physchem [2]): 0.94

CN/C(=N/CCSCc1nc[nH]c1C)NC#N [CIMETIDINE]
logD (physchem [1]): 0.29
logD (physchem [2]): 0.34

CC(=O)OCC(=O)[C@@]1(O)CC[C@H]2[C@@H]3CCC4=CC(=O)CC[C@]4(C)[C@H]3[C@@H](O)C[C@@]21C [HYDROCORTISONE ACETATE]
logD (physchem [1]): 2.11
logD (physchem [2]): 2.21

CCN(CC)CCNC(=O)c1ccc(N)cc1 [PROCAINAMIDE]
logD (physchem [1]): -0.94
logD (physchem [2]): -0.89

CNC(=C[N+](=O)[O-])NCCSCc1ccc(CN(C)C)o1 [RANITIDINE]
logD (physchem [1]): -0.99
logD (physchem [2]): -0.91

CCN(CC)CCNC(=O)c1cc(S(C)(=O)=O)ccc1OC [TIAPRIDE]
logD (physchem [1]): -0.9
logD (physchem [2]): -0.85
